Measurements as given in PMC7767053, “Functional Analysis of Odorant-Binding Proteins 12 and 17 from Wheat Blossom Midge Sitodiplosis mosellana Géhin (Diptera: Cecidomyiidae)” (Insects, 2020).
“Also recorded” adds a separate entry of the source. Where two headings read alike, the source gives them in different places.

Legend:
SmosOBP17 = SmosOBP17 (Sitodiplosis mosellana, UniProt A0A346RTY9); assay: Fluorescence competitive binding assay with 1-NPN probe, recombinant SmosOBP17; conditions: for Ki: calculated from IC50, Ki = [IC50]/(1 + [1-NPN]/K1-NPN); for binding to SmosOBP17 (in words): fluorescence competitive binding
SmosOBP17, sequence (A0A346RTY9 entry or part of it): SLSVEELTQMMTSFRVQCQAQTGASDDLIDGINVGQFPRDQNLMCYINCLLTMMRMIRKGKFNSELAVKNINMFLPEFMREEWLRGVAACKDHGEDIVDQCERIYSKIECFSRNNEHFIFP
Method: (§1) To determine binding affinities of SmosOBP12 and SmosOBP17 to host plant volatile compounds, fluorescence competitive binding assays were conducted using 1-N-phenyl-naphthylamine (1-NPN) as the fluorescent probe. Twenty-eight volatile compounds from winter wheat (Table 2) were selected based on our previous research. Both the probe and candidate ligands were dissolved in chromatographic-grade methanol to obtain 1 mM stock solutions, whereas recombinant SmosOBPs were diluted in 20 mM Tris-HCl (pH 7.4) to 2 μM. Fluorescence intensity was detected on an F-4600 fluorescence spectrophotometer (Hitachi, Tokyo, Japan) with a 1 cm light path quartz cuvette. Slits of both excitation and emissions were 10 nm in width. The probe was excited at 337 nm, and emission spectra were recorded between 370 and 550 nm.
(§2) Affinities of SmosOBPs to tested volatile ligands were measured by competition assays: to the 1 mL solution containing 2 μM recombinant protein and 2 μM 1-NPN, 1 mM solution of each putative volatile ligand (in a 2 µL aliquot) was added to final concentrations of 2–14 μM for SmosOBP12 and 2–40 μM for SmosOBP17, respectively. Maximal fluorescence intensities were plotted against ligand concentrations. Data were obtained from three independent measurements.
(§3) The Kd value was calculated using GraphPad Prism 5 (GraphPad Software Inc., La Jolla, CA, USA) via nonlinear regression for a unique site of binding. The inhibition constant (Ki) of each ligand competitor was calculated from the corresponding IC50 value (the concentration of competitor displacing 50% of initial fluorescence intensity) according to the equation: Ki = [IC50]/(1 + [1-NPN]/K1-NPN), where [1-NPN] is the free concentration of 1-NPN, and K1-NPN is the dissociation constant of the SmosOBPs/1-NPN complex.

SmosOBP12 = SmosOBP12 (Sitodiplosis mosellana, UniProt A0A346RTY7); assay: Fluorescence competitive binding assay with 1-NPN probe, recombinant SmosOBP12; conditions: for Ki: calculated from IC50, Ki = [IC50]/(1 + [1-NPN]/K1-NPN); for binding to SmosOBP12 (in words): fluorescence competitive binding
SmosOBP12, sequence (A0A346RTY7 entry or part of it): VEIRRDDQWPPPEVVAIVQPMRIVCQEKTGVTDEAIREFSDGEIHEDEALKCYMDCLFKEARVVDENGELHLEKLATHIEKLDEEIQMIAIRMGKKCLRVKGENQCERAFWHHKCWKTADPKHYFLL
Method: as §1, §2, §3

[1] = system: female antennae of S. mosellana; parameters: method as in Cheng et al., 2020; conditions: ref Cheng et al., 2020; cited from earlier work
S. mosellana females = assay: Y-tube olfactometer bioassay; type: in vivo, Sitodiplosis mosellana; conditions: 10 μL of 20 μg/μL in paraffin oil vs paraffin oil control; 60 females
Method: Behavioral responses of S. mosellana females to the 28 volatile ligands were measured in a glass Y-tube olfactometer. The base and two arms of the Y-tube are 15 cm in length and 25 mm in internal diameter. The angle between arms is 60°. A 10 μL aliquot of the test chemical in paraffin oil at a concentration of 20 μg/μL [45] was applied to a filter paper strip (20 × 20 mm), which was allowed to evaporate for 20 s and then placed into one of the two odor bottles. The other odor bottle contained a filter paper strip treated with 10 μL of paraffin oil as the control. Moist, activated-charcoal filtered air entered both odor bottles connected by Teflon tubing to their respective arms of the Y-tube. The airflow rate through the olfactometer was 100 mL/min, which was measured by a float rotor meter. A newly emerged female S. mosellana adult was introduced into the end of the base of the Y-tube, which was then immediately covered with a dark paper box. An office lamp (20 W) illuminated the joint of two arms to facilitate observation. The choice was made if the S. mosellana female walked or flew 5 cm past the Y junction within 5 min and remained there for at least 15 s. Otherwise, it would be recorded as no-choice. Odor source was renewed for every five individuals. After testing for 10 individuals, the Y-tube was thoroughly cleaned with 95% ethanol and dried, and the treatment and control arms were switched to avoid the directional bias. After one odor source was tested, the Y-tube, odor bottles, and Teflon tubing were cleaned and dried before reuse. All experiments were conducted in a laboratory with a temperature of 25 ± 1 °C from 5:00 to 9:00 p.m. Sixty female adults were tested in each treatment group, and each individual was used only once. The choice response of insects in each treatment group was analyzed by the chi-square test using SPSS 20.0 software (Chicago, IL, USA). Non-selecting insects were recorded but not included in the statistical analysis.

SmosOBP21 = system: SmosOBP21; parameters: method as in PMID 31017726; conditions: cited from earlier work
SmosOBP16 = system: SmosOBP16; parameters: method as in PMID 31017726; conditions: cited from earlier work
SmosOBP11 = system: SmosOBP11; parameters: method as in PMID 31017726; conditions: cited from earlier work
[2] = displacement of 1-NPN, 2 μM protein, 2 μM 1-NPN, ligand 2–40 μM, three independent measurements, read-out: SmosOBP17 IC50
[3] = displacement of 1-NPN, 2 μM protein, 2 μM 1-NPN, ligand 2–14 μM, three independent measurements, read-out: SmosOBP12 IC50

Row | IC50 (SmosOBP17; [2]) [µM] | Ki (SmosOBP12; read-out: SmosOBP12 Ki) [µM] | IC50 (SmosOBP12; [3]) [µM] | Ki (SmosOBP17) [µM] | binding to SmosOBP17 (in words) (SmosOBP17) | SMILES | behavioral response of S. mosellana female adults (S. mosellana females) | further results
1 |  |  |  |  |  | c1ccc(Nc2cccc3ccccc23)cc1 [1-NPN, 1-N-phenyl-naphthylamine, reference compound] |  | Kd (SmosOBP17; 2 µM protein titrated with 1-NPN 0–24 µM, read-out: dissociation constant (Kd) of SmosOBP17 with 1-NPN): 3.02 µM; Kd (SmosOBP12; 2 µM protein titrated with 1-NPN 0–24 µM, read-out: dissociation constant (Kd) of SmosOBP12 with 1-NPN): 4.26 µM
2 | > 40 | 5.29 ± 0.11 | 6.55 ± 0.12 |  |  | C=CC(O)CCCCC (stereo not drawn) [1-Octen-3-ol] | intensive response; also recorded: significant attraction; also recorded: significantly attracted | electrophysiological response on female antennae [1]: strong electrophysiological responses
3 | > 40 | 6.36 ± 0.25 | 7.86 ± 0.31 | > 30 | did not bind | CCCCC(CC)CO (stereo not drawn) [2-Ethyl hexanol] |  | 
4 |  |  |  |  |  | CCCCC(C)=O [2-Hexanone] |  | IC50 (SmosOBP17): > 40 µM; IC50 (SmosOBP12): 12.66 ± 0.08 µM; Ki (SmosOBP12; SmosOBP12 Ki): 10.25 ± 0.06 µM
5 | > 40 | > 11.3 | > 14 | > 30 | did not show any affinity | CCCCCCCCCCCC(C)=O [2-Tridecanone] |  | binding to SmosOBP12 (in words) (SmosOBP12): did not show any affinity
6 | > 40 | 3.84 ± 0.12 | 4.76 ± 0.15 |  |  | CC1=CCC2C(C1)C2(C)C (stereo not drawn) [3-Carene] | intensive response; also recorded: significant attraction | 
7 | 34.68 ± 0.34 | 3.33 ± 0.05 | 4.12 ± 0.07 | 26.05 ± 0.25 |  | CCCC(O)CC (stereo not drawn) [3-Hexanol] | intensive response; also recorded: significant attraction; also recorded: significantly attracted | electrophysiological response on female antennae [1]: strong electrophysiological responses
8 | 37.1 ± 0.06 | 6.26 ± 0.03 | 7.74 ± 0.04 | 27.87 ± 0.04 |  | CCCC(=O)CC [3-Hexanone] |  | 
9 | > 40 | 6.72 ± 0.1 | 8.32 ± 0.14 |  |  | CCCCC(=O)CCCC [5-Nonanone] |  | 
10 | > 40 | 7.18 ± 0.01 | 8.88 ± 0.02 |  |  | CC/C=C\CCOC(C)=O [(Z)-3-Hexenyl acetate] | intensive response; also recorded: significant attraction; also recorded: significantly attracted | electrophysiological response on female antennae [1]: strong electrophysiological responses
11 | 38.01 ± 0.2 | 4.07 ± 0.05 | 5.04 ± 0.08 | 28.55 ± 0.15 |  | CC(C)(CO)[C@@H](O)C(=O)NCCCO [D-Panthenol] | intensive response; also recorded: significant attraction; also recorded: significantly attracted | electrophysiological response on female antennae [1]: strong electrophysiological responses
12 | > 40 | 8.06 ± 0.37 | 9.94 ± 0.44 | > 30 | did not bind | CCCCCCCCCCCC=O [Dodecanal] |  | binding to SmosOBP12 (in words) (SmosOBP12): bound
13 | > 40 | > 11.3 | > 14 | > 30 |  | CCCCCCCCCCCC [Dodecane] |  | 
14 | 38.28 ± 0.12 | 7.29 ± 0.09 | 9 ± 0.11 | 28.76 ± 0.09 |  | CCCCCCC(=O)OCC [Ethyl heptanoate] | intensive response; also recorded: significant attraction; also recorded: significantly attracted | electrophysiological response on female antennae [1]: strong electrophysiological responses
15 | 28.79 ± 0.09 | 3.34 ± 0.02 | 4.11 ± 0.02 | 21.63 ± 0.06 |  | CCCCCCCOC(C)=O [Heptyl acetate] | intensive response; also recorded: significant attraction; also recorded: significantly attracted | electrophysiological response on female antennae [1]: strong electrophysiological responses
16 | 33.96 ± 0.03 | 10.42 ± 0.08 | 12.88 ± 0.09 | 25.51 ± 0.02 |  | CCCCCCOC(C)=O [Hexyl acetate] | intensive response; also recorded: significant attraction; also recorded: significantly attracted | electrophysiological response on female antennae [1]: strong electrophysiological responses
17 |  | 5.9 ± 0.12 | 7.28 ± 0.16 |  |  | CCCCCCOC(=O)CC [Hexyl propionate] |  | 
18 | > 40 | > 11.3 | > 14 | > 30 | did not show any affinity | CC(=O)OCCCCCC(C)C [Isooctyl acetate] |  | binding to SmosOBP12 (in words) (SmosOBP12): did not show any affinity
19 |  |  |  |  |  | COC(=O)c1ccccc1O [Methyl salicylate] | intensive response; also recorded: significant attraction; also recorded: significantly attracted | electrophysiological response on female antennae [1]: strong electrophysiological responses; IC50 (SmosOBP17): 26.8 ± 0.27 µM; IC50 (SmosOBP12): 11.9 ± 0.24 µM; Ki (SmosOBP12; SmosOBP12 Ki): 9.62 ± 0.33 µM
20 | > 40 | 8.24 ± 0.03 | 10.17 ± 0.04 | > 30 | insensitive; also recorded: did not bind | C=CC(C)=CCC=C(C)C [Ocimene] | repelled; also recorded: intensive response; also recorded: significant repulsion; also recorded: strong repelling effect | binding to SmosOBP21 (in words) (SmosOBP21): did not bind; binding to SmosOBP16 (in words) (SmosOBP16): did not bind; binding to SmosOBP11 (in words) (SmosOBP11): did not bind; Ki (SmosOBP12; listed as ocimene, read-out: SmosOBP12 Ki): 8.2 µM
21 | > 40 | > 11.3 | > 14 | > 30 |  | CCCCCCCCCCCCCCC [Pentadecane] |  | 
22 | > 40 | 4.24 ± 0.03 | 5.23 ± 0.01 |  |  | CCCCCOC(=O)CCCC [Pentyl pentanoate] |  | 
23 | > 40 | > 11.3 | > 14 | > 30 |  | CCCCCCCCCCCCC [Tridecane] |  | 
24 | > 40 | 4.39 ± 0.02 | 5.43 ± 0.03 |  |  | CCCCCCCCCCCO [Undecanol] |  | 
25 | > 40 | > 11.3 | > 14 | > 30 | did not show any affinity | CC1=CC[C@@]23CC1C(C)(C)[C@@H]2CC[C@H]3C [α-Cedrene] |  | binding to SmosOBP12 (in words) (SmosOBP12): did not show any affinity

Row | SMILES | IC50 (SmosOBP17; [2]) [µM] | Ki (SmosOBP12; read-out: SmosOBP12 Ki) [µM] | IC50 (SmosOBP12; [3]) [µM] | Ki (SmosOBP17) [µM] | binding to SmosOBP17 (in words) (SmosOBP17) | behavioral response of S. mosellana female adults (S. mosellana females) | further results
26 | C/C1=C\CC/C(C)=C/CC(C)(C)/C=C/C1 [α-Humulene] | > 40 | > 11.3 | > 14 | > 30 | did not show any affinity |  | binding to SmosOBP12 (in words) (SmosOBP12): did not show any affinity
27 | CC1=CCC2CC1C2(C)C (stereo not drawn) [α-Pinene] |  |  |  |  | did not bind |  | IC50 (SmosOBP17): > 40 µM; IC50 (SmosOBP12): 7.63 ± 0.06 µM; Ki (SmosOBP12; SmosOBP12 Ki): 6.17 ± 0.04 µM
28 | C=C1CC/C=C(\C)CC[C@@H]2[C@@H]1CC2(C)C [β-Caryophyllene] |  |  |  |  | did not show any affinity |  | IC50 (SmosOBP17): > 40 µM; IC50 (SmosOBP12): > 14 µM; Ki (SmosOBP12; SmosOBP12 Ki): > 11.3 µM; binding to SmosOBP12 (in words) (SmosOBP12): did not show any affinity
